Data as given in US9351486B2, “Combinations of derivatized saccharide surfactants and etheramine oxide surfactants as herbicide adjuvants” (Monsanto Technology LLC, priority 2008, dated 2016).

Key:
Assay type in all cases: in vivo
LOLMG, annual ryegrass = assay: Greenhouse herbicidal efficacy on LOLMG
Description: (§1) Spray compositions of the Examples, containing an exogenous chemical, such as glyphosate potassium salt, in addition to the excipient ingredients listed, were evaluated for herbicidal efficacy according to the following method.
(§2) The amount of exogenous chemical was selected to provide the desired rate in grams per hectare (g/ha) when applied in a spray volume of 93 l/ha. Several exogenous chemical rates were applied for each composition. Thus, except where otherwise indicated, when spray compositions were tested, the concentration of exogenous chemical varied in direct proportion to exogenous chemical rate, but the concentration of excipient ingredients was held constant across different exogenous chemical rates.
(§3) Concentrate compositions were tested by dilution, dissolution or dispersion in water to form spray compositions. In these spray compositions prepared from concentrates, the concentration of excipient ingredients varied with that of exogenous chemical.
(§4) The herbicidal effectiveness data set forth herein report “inhibition” as a percentage following a standard procedure in the art which reflects a visual assessment of plant mortality and growth reduction by comparison with untreated plants, made by technicians specially trained to make and record such observations. In all cases, a single technician makes all assessments of percent inhibition within any one experiment or trial. […]
(§5) The efficacy of formulations containing potassium glyphosate and an APG surfactant (formulation 179W2N) or an EAO surfactant (formulation 179R6U) in a weight percent ratio of glyphosate a.e. to surfactant of 4:1 was evaluated in greenhouse trials as compared to compositions 276U4D, 351L9P, 294T6K and K-GLY. The efficacy of each formulation, surfactant and comparative composition was evaluated at application rates of 100, 200 and 400 g glyphosate a.e. per hectare and the results are reported in Table ET8A wherein APG:EAO is the weight ratio of alkylpolyglucoside (APG) surfactant to alkoxylated amine oxide (EAO) surfactant and Gly:Surf is the weight ratio of glyphosate a.e. to total surfactant. […]

[1] = test system: VIOAR, Field violet (Viola arvensis Murr.); assay: Greenhouse herbicidal efficacy on VIOAR
Description: as §1, §2, §3
(§6) The herbicidal effectiveness data set forth herein report “inhibition” as a percentage following a standard procedure in the art which reflects a visual assessment of plant mortality and growth reduction by comparison with untreated plants, made by technicians specially trained to make and record such observations. In all cases, a single technician makes all assessments of percent inhibition within any one experiment or trial. Such measurements are relied upon and regularly reported by Monsanto Company in the course of its herbicide business.
(§7) The efficacy of potassium glyphosate formulations containing an APG surfactant and an EAO surfactant in an APG:EAO weight ratio of 4:1 and a glyphosate a.e. to total surfactant weight ratio of about 2.9:1 were evaluated in greenhouse trials. Also evaluated were potassium glyphosate compositions containing either an alkylpolyglucoside surfactant (designated as “Surfactant L” and “Surfactant N”) or an alkoxylated etheramine oxide surfactant (designated as “Surfactant G”) wherein the weight ratio of glyphosate a.e. to surfactant was about 2.9:1. Finally, the efficacy of potassium glyphosate not containing a surfactant (K-GLY) and comparative compositions 139R8H and 294T6K were also evaluated. The efficacy of each formulation, surfactant and comparative composition was evaluated at application rates of 100, 200 and 400 g glyphosate a.e. per hectare.
(§8) The efficacy of potassium glyphosate formulations containing various ratios of APG surfactants to EAO surfactants were evaluated in greenhouse trials as compared to comparative compositions 139R8H and 276U4D. The efficacy of each formulation, surfactant and comparative composition was evaluated at application rates of 200, 400 and 600 g glyphosate a.e. per hectare and the results are reported in Table ET4A wherein APG:EAO is the weight ratio of APG surfactant to EAO surfactant and Gly:Surf is the weight ratio of glyphosate a.e. to total surfactant.
The efficacy of potassium glyphosate formulations containing Atplus 452 and EAO surfactants were evaluated in greenhouse trials. The efficacy of each formulation, surfactant and comparative composition was evaluated at application rates of 100, 200, 300 and 400 g glyphosate a.e. per hectare and the results are reported in Table ET5A wherein APG:EAO is the weight ratio of APG surfactant to EAO surfactant and Gly:Surf is the weight ratio of glyphosate a.e. to total surfactant.

[2] = test system: SINAR, wild mustard (Sinapis arvensis L.); assay: Greenhouse herbicidal efficacy on SINAR
Description: as §1, §2, §3, §6, §7
(§9) The efficacy of potassium glyphosate formulations containing various APG surfactants and an EAO surfactant in an APG:EAO weight ratios and glyphosate a.e. to total surfactant weight ratios (Gly:Surf) as indicated in the tables below. Finally, the efficacy of comparative standard compositions 139R8H and 294T6K were also evaluated. The efficacy of each formulation, surfactant and comparative composition was evaluated at application rates of 100, 200 and 400 g glyphosate a.e. per hectare.
as §8

[3] = test system: CHEAL, common lambsquarters (Chenopodium album L.); assay: Greenhouse herbicidal efficacy on CHEAL
Description: as §1, §2, §3, §6

MALSI, cheeseweed = assay: Greenhouse herbicidal efficacy on MALSI; conditions: Example ET9; average for 100, 200 and 400 g a.e./ha application rates
Description: as §1
The amount of exogenous chemical was selected to provide the desired rate in grams per hectare (g/ha) when applied in a spray volume of 93 l/ha. Several exogenous chemical rates were applied for each composition. […]
as §8, with “surfactant. For each plant species, efficacy results are reported as the average % control for the three application rates (Table ET4a) and the calculated application rate (g a.e./ha) that must be applied to achieve 85% control (Table ET4b).” for “surfactant.”

[4] = test system: ABUTH, velvetleaf (Abutilon theophrasti Medik.); assay: Greenhouse herbicidal efficacy on ABUTH; conditions: for Average % control, ABUTH: average for 100, 200 and 400 g a.e./ha application rates
Description: as §1, §2, §3, §4, §5

[5] = test system: LOLMU, Italian ryegrass (Lolium multiflorum Lam.); assay: Greenhouse herbicidal efficacy on LOLMU; conditions: for Application rate required for 85% control, LOLMU: calculated from rates 100, 200 and 400 g a.e./ha; for Average % control, LOLMU: average for 100, 200 and 400 g a.e./ha application rates
Description: as §1, §2, §3, §6, §7, §9

[6] = Example ET5, average for 100, 200, 300 and 400 g a.e./ha application rates
[7] = Example ET5, calculated from rates 100, 200, 300 and 400 g a.e./ha
[8] = Example ET9, average for 100, 200 and 400 g a.e./ha application rates
[9] = Example ET1, calculated from rates 100, 200 and 400 g a.e./ha
[10] = Example ET1, greenhouse, average of the three application rates
[11] = Example ET3, average for 100, 200 and 400 g a.e./ha application rates
[12] = Example ET3, calculated from rates 100, 200 and 400 g a.e./ha
[13] = Example ET6, average for 200, 400 and 600 g a.e./ha application rates
[14] = Example ET6, calculated from rates 200, 400 and 600 g a.e./ha
[15] = Example ET2, calculated from rates 100, 200 and 400 g a.e./ha

## O=C(O)CNCP(=O)([O-])O.[K+] [K-GLY, potassium glyphosate]
LOLMG, annual ryegrass; [6]
  Average % control, LOLMG: 42.5%
LOLMG, annual ryegrass; [7]
  Application rate required for 85% control, LOLMG: >400.0 g a.e./ha
LOLMG, annual ryegrass; [8]
  Average % control, LOLMG: 37.8%
[1]; [9]
  Application rate required for 85% control, VIOAR: >400.0 g a.e./ha
[1]; [10]
  Average % control for 100, 200 and 400 g a.e./ha application rates, VIOAR: 39.2%
[1]; [11]
  Average % control, VIOAR: 27.5%
[1]; [12]
  Application rate required for 85% control, VIOAR: >400.0 g a.e./ha
[1]; [6]
  Average % control, VIOAR: 34.7%
[1]; [7]
  Application rate required for 85% control, VIOAR: >400.0 g a.e./ha
[1]; [13]
  VIOAR (ave. cntrl): 31.7%
[1]; [14]
  VIOAR (g a.e./ha for 85% control): >600.0 g a.e./ha
[1]; [8]
  Average % control, VIOAR: 36.7%
[2]; [9]
  Application rate required for 85% control, SINAR: >400.0 g a.e./ha
[2]; [10]
  Average % control for 100, 200 and 400 g a.e./ha application rates, SINAR: 67.5%
[2]; Example ET2, average for 100, 200 and 400 g a.e./ha application rates
  Average % control, SINAR: 64.1%
[2]; [15]
  Application rate required for 85% control, SINAR: >400.0 g a.e./ha
[2]; [6]
  Average % control, SINAR: 72.5%
[2]; [7]
  Application rate required for 85% control, SINAR: 366.7 g a.e./ha
[2]; Example ET7, 10 DAT, average for 50, 100 and 300 g a.e./ha application rates
  SINAR 10 DAT (ave. Ctrl): 74.6%
[2]; Example ET7, 10 DAT, calculated from rates 50, 100 and 300 g a.e./ha
  SINAR 10 DAT (g a.e./ha for 85% control): 227.3 g a.e./ha
[3]; [11]
  Average % control, CHEAL: 5.0%
[3]; [12]
  Application rate required for 85% control, CHEAL: >400.0 g a.e./ha
[3]; [13]
  CHEAL (ave. cntrl): 33.3%
[3]; [14]
  CHEAL (g a.e./ha for 85% control): >600.0 g a.e./ha
MALSI, cheeseweed
  Average % control, MALSI: 22.8%
[4]; Example ET2
  Average % control, ABUTH: 40.0%
[4]; [15]
  Application rate required for 85% control, ABUTH: 400.0 g a.e./ha
[4]; Example ET9
  Average % control, ABUTH: 27.2%
[5]; Example ET1
  Application rate required for 85% control, LOLMU: >400.0 g a.e./ha
[5]; [10]
  Average % control for 100, 200 and 400 g a.e./ha application rates, LOLMU: 40.8%
[5]; Example ET2
  Average % control, LOLMU: 58.1%
  Application rate required for 85% control, LOLMU: >400.0 g a.e./ha
[5]; Example ET3
  Average % control, LOLMU: 27.9%
  Application rate required for 85% control, LOLMU: >400.0 g a.e./ha
[5]; Example ET7, 23 DAT, average for 50, 100 and 300 g a.e./ha application rates
  LOLMU 23 DAT (ave. control): 48.3%
[5]; Example ET7, 23 DAT, calculated from rates 50, 100 and 300 g a.e./ha
  LOLMU 23 DAT (g a.e./ha for 85% control): >300.0 g a.e./ha
